The values below come from US12280032B2, “Methods and compositions for increasing the potency of antifungal agents” (Pacific Northwest Research Institute, priority 2014, dated 2025).

Assay [1] deals with S. cerevisiae Strain F45. The experiment in a line: Zones of growth inhibition on YPD plates containing 10 mM Enamine compound with 50 μg fluconazole disk. Type of assay: cell-based, Saccharomyces cerevisiae. The protocol:
Zones of Growth Inhibition were Measured for the S. cerevisiae Strain F45 on YPD Plates Containing 10 mM of the Enamine Compound with a 50 μg Fluconazole Disk Applied.
Zones of growth inhibition were also measured for strain F45 in which F45 strains were spread on YPD plates that contained 10 mM of an Enamine compound which was poured into the plate, with a 50 μg fluconazole disk. Enamine is an unsaturated compound derived by the condensation of an aldehyde or ketone with a secondary amine Some enmities have structures that are similar to PE, as such, they were tested to measure their efficacy in increasing sensitivity to an antifungal.

For assay [2], the system named is the fungus. The experiment in a line: Effects of antifungals in the presence of PE (FIG. 4). Type of assay: cell-based. Conditions: PE used in conjunction with the antifungal.
Assay [3] concerns C. albicans fluconazole resistant strain R357. Put plainly: YPD plate assay with antifungal filter disk, with or without PE. Type of assay: cell-based, Candida albicans. More on the design: unit not given here. Conditions: C. albicans strain 8357.
Assay [4] concerns S. cerevisiae (F45). The description is as above. Type of assay: cell-based, Saccharomyces cerevisiae. Also noted: Degree of clearance: unit not given here.
The test system of assay [5] is S. cerevisiae biofilm formation. The experiment in a line: Biofilm formation (colony morphology). Type of assay: cell-based, Saccharomyces cerevisiae. The following applies: determined by colony morphology; previous experiments. The protocol: In each panel, the left plate is YPD alone and the right plate is YPD plus 10 mM PE (a concentration that inhibits the fluffy colony morphology). Each plate also contains a paper disk containing the DMSO vehicle (FIG. 1, panel A), 25 μg fluconazole (FIG. 1, panel B), 50 μg fluconazole (FIG. 1, panel C), or 100 μg fluconazole (FIG. 1, panel D).
However, previous experiments determined that biofilm formation was inhibited at PE concentrations of 10 mM or higher. Attention is drawn to FIG. 2, in which concentrations of PE that were too low to inhibit biofilm formation (determined by colony morphology) were also shown to increase the sensitivity of the yeast strain flo11D for the fluconazole which further support the hypothesis that the effect of PE on drug sensitivity is independent of its effect on biofilm formation. As such, there is a synergistic effect upon the combination of PE with fluconazole, in which the cells are more sensitive to fluconazole in the presence of PE at a higher concentration (10 mM PE). […] It is noted that even at lower concentrations of PE (<10 mM), in which the colonies are fluffy, indicating an intact cell wall or intact morphology, the PE at lower concentrations can still enhance killing by fluconazole. […] As such, even at a lower concentration, PE in combination with fluconazole has a synergistic effect on inhibiting the growth of the fungal strain.

Assay [6] deals with BY4741 lab strain. The experiment in a line: YPD plate assay with nystatin disk, with or without PE. Type of assay: cell-based, Saccharomyces cerevisiae. Conditions: FIG. 9 Panel B. The protocol: In each panel, the top plate is YPD alone with a disc that contains DMSO, the bottom left plate is YPD alone with a disc that contains 50 μg Nystatin and the bottom right plate is YPD plus 10 mM PE with a disc that contains 50 μg Nystatin. The plates in FIG. 9, panel A are spread with the F45 strain. The plates in FIG. 9, panel B are spread with the BY4741 lab strain.
In each panel, the top plate is YPD alone with a disc that contains DMSO, the bottom left plate is YPD alone with a disc that contains 50 μg Nystatin and the bottom right plate is YPD plus 10 mM PE with a disc that contains 50 μg Nystatin. The plates in panel are spread with the F45 strain (FIG. 9, panel A), The plates in FIG. 9, panel Bare spread with the BY4741 lab strain.

Assay [7] concerns Aspergillus fumigatus (ATCC 13073). Put plainly: M.I.C. determination. Type of assay: cell-based. Conditions: drug alone.
Assay [8] has as its system Candida krusei (ATCC 6258). Put plainly: M.I.C. determination. Format: cell-based. The following applies: drug alone.
For assay [9], the system named is Candida glabrata (ATCC 36583). The experiment in a line: M.I.C. determination. Conditions: drug alone. Format: cell-based.
Assay [10] concerns Cryptococcus neoformans (ATCC 24067). The experiment in a line: M.I.C. determination. Format: cell-based. The following applies: drug alone.
Assay [11] concerns Candida albicans (resistant=20186.025; 8357). Put plainly: M.I.C. determination. Format: cell-based. The following applies: drug alone.
For assay [12], the system named is Candida parapsilosis (ATCC 22019). The experiment in a line: M.I.C. determination. Type of assay: cell-based. Conditions: drug alone.
The test system is the same in assay [13]. The experiment in a line: Checkerboard assay (FICI) of PE with triazole. Conditions: named triazole in combination with PE. Type of assay: cell-based.
Assay [14] has as its system Candida tropicalis (ATCC 200956). Put plainly: M.I.C. determination. Format: cell-based. The following applies: drug alone.
The subject of assay [15] is Candida albicans (sensitive=ATCC 90028). Put plainly: Checkerboard assay (FICI) of PE with triazole. Type of assay: cell-based. Conditions: named triazole in combination with PE.
For assay [16] the test system is unchanged. Put plainly: M.I.C. determination. Format: cell-based. Conditions: drug alone.
The subject of assay [17] is Cryptococcus neoformans (ATCC 24067). Put plainly: Checkerboard assay (FICI) of PE with triazole. Type of assay: cell-based. Conditions: named triazole in combination with PE.
In assay [18] the test system is Candida krusei (ATCC 6258). Put plainly: Checkerboard assay (FICI) of PE with triazole. Format: cell-based. Conditions: named triazole in combination with PE.
Assay [19] concerns Aspergillus fumigatus (ATCC 13073). Put plainly: Checkerboard assay (FICI) of PE with triazole. Type of assay: cell-based. Conditions: named triazole in combination with PE.
Assay [20] concerns Candida glabrata (ATCC 36583). The experiment in a line: Checkerboard assay (FICI) of PE with triazole. Type of assay: cell-based. Conditions: named triazole in combination with PE.
In assay [21] the test system is Candida tropicalis (ATCC 200956). Put plainly: Checkerboard assay (FICI) of PE with triazole. Format: cell-based. Conditions: named triazole in combination with PE.
In assay [22] the test system is Candida albicans (resistant=20186.025; 8357). Put plainly: Checkerboard assay (FICI) of PE with triazole. Type of assay: cell-based. Conditions: named triazole in combination with PE.
The mark [23] stands for this setting: 10 mM compound in YPD, 50 μg fluconazole disk, F45.

Take `CC(C)Cc1ccc(CCCO)cc1` [G]: the “Fluconazole Zone Size” value in [1] is recorded as “inhibition by compound but not fluconazole”.

Turning to `NCCCCOCCc1ccccc1` [I], in assay [1], the “Fluconazole Zone Size” value is “no growth”. Moreover, the “Growth of fungal cells on the plate with fluconazole” value (shortened to “Growth of fungal cells on the plate”) in assay [1] (setting [23]) is recorded as “loss of growth”.

Take `Nc1[nH]c(=O)ncc1F` [Flucytosine]: the “Sensitivity of the fungus to the antifungal in the presence of PE” value (“Sensitivity of the fungus” for short) in assay [2] is “increased the sensitivity”.

Consider `CO[C@H]1[C@@H](O)[C@H](O)[C@H](OC[C@@]23C[C@@H]4[C@H](C)CC[C@H]4[C@@]4(C=O)CC2C=C(C(C)C)[C@@]34C(=O)O)O[C@@H]1C` [Sordarin], for which the Degree of clearance in assay [3] (FIG. 13 Panel A, YPD + 1 μg sordarin) is 1; in [3] (FIG. 13 Panel A, YPD + 1 μg sordarin + 10 mM PE) it was 2; in [3] (FIG. 13 Panel B, YPD + 10 μg sordarin), 2; in assay [3] (FIG. 13 Panel B, YPD + 10 μg sordarin + 10 mM PE), 3; in [3] (FIG. 13 Panel C, YPD + 50 μg sordarin), 3; in [3] (FIG. 13 Panel C, YPD + 50 μg sordarin + 10 mM PE) it was 4. Further, the Degree of clearance in assay [4] (FIG. 7 Panel A, YPD + 10 mM PE + 50 μg Sordarin, F45) is on record as 4; in [4] (FIG. 7 Panel A, YPD alone, 50 μg Sordarin disk, F45), 8; in assay [4] (FIG. 7 Panel B, YPD + 10 mM PE + 10 μg Sordarin, F45), 3; in assay [4] (FIG. 7 Panel B, YPD alone, 10 μg Sordarin disk, F45), 2; in assay [4] (FIG. 7 Panel C, YPD + 10 mM PE + 1 μg Sordarin, F45), 2; in assay [4] (FIG. 7 Panel C, YPD alone, 1 μg Sordarin disk, F45), 1. Moreover, the Degree of clearance was determined as 1 in [4] (FIG. 7 Panel D, YPD + 10 mM PE + 500 μg Sordarin, F45) and 0 in assay [4] (FIG. 7 Panel D, YPD alone, Sordarin disk (500 ng per legend), F45). The “Sensitivity of the fungus” value in assay [2] is “increased the sensitivity”.

With `CCc1ccc(N)cc1` [F], the “Fluconazole Zone Size” value in [1] is given as “inhibition by compound but not fluconazole”.

Turning to `OCCc1ccccc1` [PE, phenyl ethanol], in assay [4] (FIG. 6 Panel A, YPD + 10 mM PE, disk with chloroform vehicle only, F45), the Degree of clearance is recorded as 0. Further, in assay [4] (YPD plus 10 mM PE, 200 ng-50 μg caspofungin disk, F45, listed as PP), the “Effect of PE on caspofungin sensitivity” value is “no effect”. Moreover, the “PE concentration at which biofilm formation was inhibited” value in assay [5] is recorded as at least 10 mM. In [1], the “Fluconazole Zone Size” value was determined as 27 mm.

`OCc1ccccc1` [B]: the “Fluconazole Zone Size” value in assay [1] is listed as 11 mm.

As for `CC(O)c1cccc(O)c1` (stereo not drawn) [A], the “Fluconazole Zone Size” value in assay [1] is on record as 11 mm.

Consider `OC1(Cc2ccccc2)CCCC1` [H], for which the “Fluconazole Zone Size” value in assay [1] is listed as “no growth”. In addition, the “Growth of fungal cells on the plate” value in assay [1] (setting [23]) is listed as “loss of growth”.

`C[C@@H]1[C@H](O)[C@@H](C)/C=C/C=C/CC/C=C/C=C/C=C/C=C/C(O[C@H]2O[C@H](C)[C@@H](O)[C@H](N)[C@@H]2O)CC2O[C@](O)(CC(O)C(O)CCC(O)CC(O)CC(O)CC(=O)O[C@H]1C)CC(O)C2C(=O)O` (stereo partly drawn) [Nystatin]: the Degree of clearance in assay [4] (FIG. 9 Panel A, Strain F45, YPD + 50 μg nystatin) came to 2; in [4] (FIG. 9 Panel A, Strain F45, YPD + 10 mM PE + 50 μg nystatin), 2; in [6] (YPD + 50 μg nystatin) it was 2; in assay [6] (YPD + 10 mM PE + 50 μg nystatin), 2.

Consider `OCCc1cccc(Cl)c1` [J], for which the “Fluconazole Zone Size” value in assay [1] is “no growth”. Besides, in assay [1] (setting [23]), the “Growth of fungal cells on the plate” value is given as “loss of growth”.

As for `CC[C@H](C)C[C@H](C)CCCCCCCCC(=O)N[C@H]1C[C@@H](O)[C@@H](NCCN)NC(=O)[C@@H]2[C@@H](O)CCN2C(=O)[C@H]([C@H](O)CCN)NC(=O)[C@H]([C@H](O)[C@@H](O)c2ccc(O)cc2)NC(=O)[C@@H]2C[C@@H](O)CN2C(=O)[C@H]([C@@H](C)O)NC1=O` [Caspofungin], the Degree of clearance in assay [4] (FIG. 8 Panel A, YPD + 10 mM PE 50 μg Caspofungin (so in the source), F45) came to 0; in assay [4] (FIG. 8 Panel E, YPD + 10 mM PE + 200 μg Caspofungin, F45) it was 0.

As for `OC(Cn1cncn1)(Cn1cncn1)c1ccc(F)cc1F` [Fluconazole], the MIC was above 128 µg in assay [7], 32 µg in [8], 8 µg in assay [9] and 0.25 µg in assay [10]. In assay [2], the “Sensitivity of the fungus” value is “increased the sensitivity”.

Regarding `Nc1ccc(CCO)cc1` [Compound C], the “Fluconazole Zone Size” value in assay [1] was 13 mm.

For `C[C@H](O)c1cccc(C#N)c1` [D], the “Fluconazole Zone Size” value in assay [1] amounted to 17 mm.

Consider `OCCNCCc1ccccc1` [E], for which, in [1], the “Fluconazole Zone Size” value is given as 35 mm. Also, in assay [1] (setting [23]), the “Activity compared with PE” value is “activity greater than PE” and the “Growth of fungal cells on the plate” value is “loss of growth”.

As to `C[C@@H](c1ncncc1F)[C@](O)(Cn1cncn1)c1ccc(F)cc1F` [Voriconazole], the MIC in assay [11] is above 128 µg; in [12], 0.03125 µg; in assay [7], 0.25 µg; in [14], 32 µg; in assay [8], 0.25 µg; in assay [16], 0.03125 µg. Further, the MIC in assay [9] stood at 0.5 µg; in [10], 0.0156 µg. Besides, the FICI in assay [13] is on record as 1.6; in [15], 2.1; in assay [17], 1.1; in assay [18], 1.1; in assay [19] it was 0.6; in assay [20], 1.2. In addition, the FICI in assay [21] worked out at 0.6; in assay [22], 0.3. Also, in [2], the “Sensitivity of the fungus” value is given as “increased the sensitivity”.
